± gives the expanded uncertainty stated by the source.
Settings: 313.15 K, Liquid, Vibrating tube method

Work on `FC(C(F)(F)F)C(F)(F)F` [1,1,1,2,3,3,3-heptafluoropropane] yielded a mass density (20571 kPa) of 1453 ± 1.6 kg/m3, a mass density (20603 kPa) of 1453 ± 1.6 kg/m3 and a mass density (20639 kPa) of 1453.2 ± 1.6 kg/m3. It also gave a mass density (20675 kPa) of 1453.5 ± 1.6 kg/m3, a mass density (20721 kPa) of 1453.6 ± 1.6 kg/m3 and a mass density (20757 kPa) of 1453.8 ± 1.6 kg/m3. For the same molecule, the mass density (20799 kPa) was 1454.1 ± 1.6 kg/m3, the mass density (20826 kPa) was 1454.2 ± 1.6 kg/m3 and the mass density (20865 kPa) was 1454.4 ± 1.6 kg/m3. The mass density (20902 kPa) was 1454.4 ± 1.6 kg/m3, the mass density (20933 kPa) was 1454.7 ± 1.6 kg/m3 and the mass density (20969 kPa) was 1454.7 ± 1.6 kg/m3. For the same molecule, the mass density (21003 kPa) was 1454.9 ± 1.6 kg/m3, the mass density (21049 kPa) was 1455 ± 1.6 kg/m3 and the mass density (21080 kPa) was 1455.2 ± 1.6 kg/m3. For the same molecule, the mass density (21213 kPa) was 1455.8 ± 1.6 kg/m3, the mass density (21240 kPa) was 1455.9 ± 1.6 kg/m3 and the mass density (21275 kPa) was 1456 ± 1.6 kg/m3. For the same molecule, the mass density (21319 kPa) was 1456.3 ± 1.6 kg/m3, the mass density (21355 kPa) was 1456.5 ± 1.6 kg/m3 and the mass density (21405 kPa) was 1456.7 ± 1.6 kg/m3. For the same molecule, the mass density (21435 kPa) was 1456.8 ± 1.6 kg/m3, the mass density (21466 kPa) was 1456.9 ± 1.6 kg/m3 and the mass density (21512 kPa) was 1457.1 ± 1.6 kg/m3. It also gave a mass density (21547 kPa) of 1457.2 ± 1.6 kg/m3, a mass density (21593 kPa) of 1457.5 ± 1.6 kg/m3 and a mass density (21628 kPa) of 1457.6 ± 1.6 kg/m3. For the same molecule, the mass density (21665 kPa) was 1457.8 ± 1.6 kg/m3, the mass density (21700 kPa) was 1457.8 ± 1.6 kg/m3 and the mass density (21742 kPa) was 1458 ± 1.6 kg/m3. For the same molecule, the mass density (21776 kPa) was 1458.2 ± 1.6 kg/m3, the mass density (21813 kPa) was 1458.3 ± 1.6 kg/m3 and the mass density (21844 kPa) was 1458.5 ± 1.6 kg/m3. It also gave a mass density (21885 kPa) of 1458.7 ± 1.6 kg/m3, a mass density (21927 kPa) of 1458.9 ± 1.6 kg/m3 and a mass density (21953 kPa) of 1459 ± 1.6 kg/m3. The mass density (21990 kPa) was 1459.2 ± 1.6 kg/m3, the mass density (22027 kPa) was 1459.2 ± 1.6 kg/m3 and the mass density (22064 kPa) was 1459.5 ± 1.6 kg/m3. The mass density (22100 kPa) was 1459.6 ± 1.6 kg/m3, the mass density (22131 kPa) was 1459.8 ± 1.6 kg/m3 and the mass density (22172 kPa) was 1459.9 ± 1.6 kg/m3. It also gave a mass density (22203 kPa) of 1460.1 ± 1.6 kg/m3, a mass density (22245 kPa) of 1460.1 ± 1.6 kg/m3 and a mass density (22276 kPa) of 1460.2 ± 1.6 kg/m3. For the same molecule, the mass density (22312 kPa) was 1460.6 ± 1.6 kg/m3, the mass density (22349 kPa) was 1460.5 ± 1.6 kg/m3 and the mass density (22385 kPa) was 1460.8 ± 1.6 kg/m3. The mass density (22411 kPa) was 1460.8 ± 1.6 kg/m3, the mass density (22447 kPa) was 1461 ± 1.6 kg/m3 and the mass density (22489 kPa) was 1461.3 ± 1.6 kg/m3. It also gave a mass density (22532 kPa) of 1461.4 ± 1.6 kg/m3, a mass density (22579 kPa) of 1461.6 ± 1.6 kg/m3 and a mass density (22611 kPa) of 1461.7 ± 1.6 kg/m3. It also gave a mass density (22653 kPa) of 1461.9 ± 1.6 kg/m3, a mass density (22684 kPa) of 1462.2 ± 1.6 kg/m3 and a mass density (22722 kPa) of 1462.2 ± 1.6 kg/m3. The mass density (22758 kPa) was 1462.5 ± 1.6 kg/m3, the mass density (22796 kPa) was 1462.5 ± 1.6 kg/m3 and the mass density (22828 kPa) was 1462.7 ± 1.6 kg/m3. The mass density (22876 kPa) was 1462.9 ± 1.6 kg/m3, the mass density (22922 kPa) was 1463.1 ± 1.6 kg/m3 and the mass density (22954 kPa) was 1463.3 ± 1.6 kg/m3. The mass density (22986 kPa) was 1463.2 ± 1.6 kg/m3, the mass density (23028 kPa) was 1463.7 ± 1.6 kg/m3 and the mass density (23054 kPa) was 1463.7 ± 1.6 kg/m3. It also gave a mass density (23096 kPa) of 1463.7 ± 1.6 kg/m3, a mass density (23132 kPa) of 1464 ± 1.6 kg/m3 and a mass density (23180 kPa) of 1464.2 ± 1.6 kg/m3. The mass density (23217 kPa) was 1464.3 ± 1.6 kg/m3, the mass density (23384 kPa) was 1465 ± 1.6 kg/m3 and the mass density (23422 kPa) was 1465.2 ± 1.6 kg/m3. For the same molecule, the mass density (23463 kPa) was 1465.3 ± 1.6 kg/m3, the mass density (23511 kPa) was 1465.4 ± 1.6 kg/m3 and the mass density (23548 kPa) was 1465.7 ± 1.6 kg/m3. For the same molecule, the mass density (23585 kPa) was 1465.8 ± 1.6 kg/m3, the mass density (23623 kPa) was 1466 ± 1.6 kg/m3 and the mass density (23672 kPa) was 1466.2 ± 1.6 kg/m3. The mass density (23710 kPa) was 1466.2 ± 1.6 kg/m3, the mass density (23760 kPa) was 1466.5 ± 1.6 kg/m3 and the mass density (23805 kPa) was 1466.6 ± 1.6 kg/m3. For the same molecule, the mass density (23840 kPa) was 1466.9 ± 1.6 kg/m3, the mass density (23893 kPa) was 1467 ± 1.6 kg/m3 and the mass density (23939 kPa) was 1467.2 ± 1.6 kg/m3. It also gave a mass density (23980 kPa) of 1467.2 ± 1.6 kg/m3, a mass density (24015 kPa) of 1467.5 ± 1.6 kg/m3 and a mass density (24073 kPa) of 1467.7 ± 1.6 kg/m3. For the same molecule, the mass density (24121 kPa) was 1467.8 ± 1.6 kg/m3, the mass density (24163 kPa) was 1468.1 ± 1.6 kg/m3 and the mass density (24204 kPa) was 1468.4 ± 1.6 kg/m3. It also gave a mass density (24258 kPa) of 1468.6 ± 1.6 kg/m3, a mass density (24299 kPa) of 1468.7 ± 1.6 kg/m3 and a mass density (24341 kPa) of 1468.9 ± 1.6 kg/m3. The mass density (24400 kPa) was 1469.2 ± 1.6 kg/m3, the mass density (24441 kPa) was 1469.3 ± 1.6 kg/m3 and the mass density (24471 kPa) was 1469.4 ± 1.6 kg/m3. It also gave a mass density (24517 kPa) of 1469.5 ± 1.6 kg/m3, a mass density (24552 kPa) of 1469.6 ± 1.6 kg/m3 and a mass density (24586 kPa) of 1469.7 ± 1.6 kg/m3. For the same molecule, the mass density (24643 kPa) was 1470 ± 1.6 kg/m3, the mass density (24690 kPa) was 1470.3 ± 1.6 kg/m3 and the mass density (24731 kPa) was 1470.4 ± 1.6 kg/m3. The mass density (24772 kPa) was 1470.6 ± 1.6 kg/m3.
